Tests used:
Test in all cases: FIC checkerboard broth microdilution
Format in all cases: cell-based
[1] = system: Enterococcus faecalis 795 (VSE); conditions: agent alone
Method: (§1) Test articles of stock solutions of daptomycin (Cubist, lot MCB2007) and TR-700 were prepared at 40 times the final target concentration in DMSO:water (1:1). DMSO was added first, the solutions were allowed to stand for 60 minutes and then the water was added. TR-700 formed a precipitate above 1280 μg/ml; therefore, this was the highest concentration used. […] The final DMSO concentration was 2.5%. The final drug concentrations in the FIC assay plates were set to bracket the MIC value of each test article for each test organism, unless the strain was totally resistant to the test article.
(§2) The test organisms were originally received from clinical sources, or from the American Type Culture Collection. Upon receipt in our laboratory, the isolates were streaked onto the appropriate growth medium: Tryptic Soy Agar II (Becton Dickinson, Sparks, Md.) supplemented with 5% defibrinated sheep blood for streptococci, and unsupplemented Tryptic Soy Agar II for all other organisms. Colonies were harvested from these plates and a cell suspension was prepared in Tryptic Soy Broth (Becton Dickinson) containing cryoprotectant. Aliquots were then frozen at −80° C. On the day prior to assay, the frozen seeds of the organisms to be tested in that session were thawed and streaked for isolation onto the appropriate agar medium plates and incubated overnight at 35° C. The test organisms were: • Staphylococcus aureus 2053 (methicillin-resistant) • Enterococcus faecalis 795 (vancomycin-susceptible) • Streptococcus pyogenes 717 • Streptococcus pneumoniae 880 (penicillin-resistant) • Escherichia coli 102 (ATCC 25922)
(§3) Streptococci were tested in Mueller Hinton II Broth (Becton Dickinson; Lot 7024879 and 7143673) supplemented with 2% lysed horse blood (Cleveland Scientific, Bath, Ohio; Lot H10472). All other organisms were tested in Mueller Hinton II Broth. The broth was prepared at 1.05× normal weight/volume to offset the 5% volume of the drugs in the final test plates.
(§4) FIC values were determined using a broth microdilution method previously described. See, Sweeney, M T and Zurenko, G E. 2003. In vitro activities of linezolid combined with other antimicrobial agents against staphylococci, enterococci, pneumococci and selected Gram-negative organisms. Antimicrob. Agents Chemother. 47:1902-1906. Automated liquid handlers (Multidrop 384, Labsystems, Helsinki, Finland; Biomek 2000 and Multimek 96, Beckman Coulter, Fullerton Calif.) were used to conduct serial dilutions and liquid transfers.
(§5) The wells (columns 2-12) of standard 96-well microdilution plates (Falcon 3918) were filled with 150 μL of 50% DMSO using the Multidrop 384. Column 1 wells were filled with 300 μl of the 40× stock solutions. […]

[2] = system: Staphylococcus aureus 2053 (MRSA); conditions: agent alone
Method: as §1, §2, §3, §4, §5

[3] = system: Streptococcus pneumoniae 880; conditions: agent alone
Method: as §1, §2, §3, §4, §5

[4] = system: Streptococcus pyogenes 717
Method: as §1, §2, §3, §4, §5

SMILES: Cn1nnc(-c2ccc(-c3ccc(N4C[C@H](CO)OC4=O)cc3F)cn2)n1 [TR-700, Tedizolid]
- MIC [1]: 0.5 µg/mL
- MIC [2]: 0.5 µg/mL
- MIC [3]: 0.25 µg/mL
- MIC [4]: 0.125 µg/mL

Source: patent publication US20130274174A1, “THERAPEUTIC COMBINATION OF DAPTOMYCIN AND PROTEIN SYNTHESIS INHIBITOR ANTIBIOTIC, AND METHODS OF USE” (priority 2011, published 2013)
